Measured values reported in ChEMBL document CHEMBL3885861, “Open TG-GATES”.

Species on record: Rattus norvegicus
Assay: Open TG-GATES - Regimen: Single
Format: toxicity, organism-based, Sprague-Dawley
Set-up: regimen Single, gender Male, age 6 weeks
Conditions: in vivo, po, 0 mg/kg, route gavage, dose level Control; for APTT / Bas / Eos / Fbg / Hb / Ht / Lym / MCH / MCHC / MCV / Mono / Neu / PT / Plat / RBC / Ret / WBC: tissue Blood; for A/G / ALP / ALT / AST / BUN / CRE / Ca / Cl / DBIL / GLC / IP / K / LDH / Na / PL / RALB / TBIL / TC / TG / TP / gamma-GTP: tissue Plasma

Cn1cc[nH]c1=S [METHIMAZOLE]
TERMINAL_BW (3 h): 207.3 g
APTT (3 h): 20.3 s
Bas (3 h): 0%
Eos (3 h): 0.4%
Fbg (3 h): 292.4 mg/dL
Hb (3 h): 13.6 g/dL
Ht (3 h): 38.8%
Lym (3 h): 82.4%
MCH (3 h): 22.3 pg
MCHC (3 h): 35.1%
MCV (3 h): 63.5 fL
Mono (3 h): 1.8%
Neu (3 h): 14.6%
PT (3 h): 15.8 s
Plat (3 h): 122.5 x10_4/uL
RBC (3 h): 612 x10_4/ul
Ret (3 h): 8.6%
WBC (3 h): 96.4 x10_2/uL
A/G (3 h): 1.3
ALP (3 h): 1879.2 IU/L
ALT (3 h): 44.4 IU/L
AST (3 h): 75.8 IU/L
BUN (3 h): 14.4 mg/dL
CRE (3 h): 0.2 mg/dL
Ca (3 h): 10.6 mg/dL
Cl (3 h): 106.8 meq/L
DBIL (3 h): 0.002 mg/dL
GLC (3 h): 190.6 mg/dL
IP (3 h): 8.2 mg/dL
K (3 h): 4.1 meq/L
LDH (3 h): 186.8 IU/L
Na (3 h): 142 meq/L
PL (3 h): 143.6 mg/dL
RALB (3 h): 3 g/dL
TBIL (3 h): 0.02 mg/dL
TC (3 h): 84 mg/dL
TG (3 h): 55.6 mg/dL
TP (3 h): 5.4 g/dL
gamma-GTP (3 h): 1 IU/L
TERMINAL_BW (6 h): 210.9 g
APTT (6 h): 21.9 s
Bas (6 h): 0%
Eos (6 h): 0.8%
Fbg (6 h): 287.6 mg/dL
Hb (6 h): 13.5 g/dL
Ht (6 h): 38.4%
Lym (6 h): 82%
MCH (6 h): 22.3 pg
MCHC (6 h): 35.1%
MCV (6 h): 63.6 fL
Mono (6 h): 2.6%
Neu (6 h): 13.8%
PT (6 h): 16 s
Plat (6 h): 117.7 x10_4/uL
RBC (6 h): 605 x10_4/ul
Ret (6 h): 9.1%
WBC (6 h): 103.6 x10_2/uL
A/G (6 h): 1.2
ALP (6 h): 1447.2 IU/L
ALT (6 h): 47.2 IU/L
AST (6 h): 77.4 IU/L
BUN (6 h): 10.8 mg/dL
CRE (6 h): 0.1 mg/dL
Ca (6 h): 10.6 mg/dL
Cl (6 h): 106.4 meq/L
DBIL (6 h): 0 mg/dL
GLC (6 h): 185 mg/dL
IP (6 h): 9.7 mg/dL
K (6 h): 4.4 meq/L
LDH (6 h): 228 IU/L
Na (6 h): 141.8 meq/L
PL (6 h): 141.6 mg/dL
RALB (6 h): 3 g/dL
TBIL (6 h): 0.022 mg/dL
TC (6 h): 79.4 mg/dL
TG (6 h): 54.2 mg/dL
TP (6 h): 5.4 g/dL
gamma-GTP (6 h): 1 IU/L
TERMINAL_BW (9 h): 203.8 g
APTT (9 h): 21.7 s
Bas (9 h): 0%
Eos (9 h): 0.8%
Fbg (9 h): 302.2 mg/dL
Hb (9 h): 13.4 g/dL
Ht (9 h): 38.7%
Lym (9 h): 81.6%
MCH (9 h): 22 pg
MCHC (9 h): 34.7%
MCV (9 h): 63.4 fL
Mono (9 h): 2.2%
Neu (9 h): 14.8%
PT (9 h): 16 s
Plat (9 h): 119.6 x10_4/uL
RBC (9 h): 610 x10_4/ul
Ret (9 h): 7.7%
WBC (9 h): 102.4 x10_2/uL
A/G (9 h): 1.1
ALP (9 h): 1453.2 IU/L
ALT (9 h): 40.2 IU/L
AST (9 h): 68.8 IU/L
BUN (9 h): 11.4 mg/dL
CRE (9 h): 0.1 mg/dL
Ca (9 h): 10.4 mg/dL
Cl (9 h): 106 meq/L
DBIL (9 h): 0.002 mg/dL
GLC (9 h): 184.2 mg/dL
IP (9 h): 9.8 mg/dL
K (9 h): 4.1 meq/L
LDH (9 h): 181.8 IU/L
Na (9 h): 141.6 meq/L
PL (9 h): 136.8 mg/dL
RALB (9 h): 2.9 g/dL
TBIL (9 h): 0.014 mg/dL
TC (9 h): 73 mg/dL
TG (9 h): 75.6 mg/dL
TP (9 h): 5.5 g/dL
gamma-GTP (9 h): 1.2 IU/L
TERMINAL_BW (24 h): 225.5 g
APTT (24 h): 21.4 s
Bas (24 h): 0%
Eos (24 h): 1%
Fbg (24 h): 315 mg/dL
Hb (24 h): 13.7 g/dL
Ht (24 h): 38.8%
Lym (24 h): 78%
MCH (24 h): 22.1 pg
MCHC (24 h): 35.3%
MCV (24 h): 62.5 fL
Mono (24 h): 2.8%
Neu (24 h): 17.4%
PT (24 h): 15.7 s
Plat (24 h): 124.5 x10_4/uL
RBC (24 h): 621.4 x10_4/ul
Ret (24 h): 8.2%
WBC (24 h): 97.4 x10_2/uL
A/G (24 h): 1.1
ALP (24 h): 1887.6 IU/L
ALT (24 h): 42.8 IU/L
AST (24 h): 69 IU/L
BUN (24 h): 15.8 mg/dL
CRE (24 h): 0.1 mg/dL
Ca (24 h): 11 mg/dL
Cl (24 h): 104.6 meq/L
DBIL (24 h): 0 mg/dL
GLC (24 h): 180.6 mg/dL
IP (24 h): 7.6 mg/dL
K (24 h): 4.2 meq/L
LDH (24 h): 183.2 IU/L
Na (24 h): 142.4 meq/L
PL (24 h): 156.6 mg/dL
RALB (24 h): 2.9 g/dL
TBIL (24 h): 0.004 mg/dL
TC (24 h): 77.8 mg/dL
TG (24 h): 120.4 mg/dL
TP (24 h): 5.6 g/dL
gamma-GTP (24 h): 1 IU/L
